These are literature values, as cited in patent US20210319872A1, “DRUG AND DEVICE COMBINATION PRODUCTS WITH IMPROVED SAFETY AND EFFICACY PROFILES” (priority 2016, published 2021).

Read-outs that look alike come from different tables or passages of the source.

In the case of `O=c1n(CCCN2CCN(c3cccc(Cl)c3)CC2)nc2ccccn12` [Trazodone (Desyrel)], where the note is “in vivo”, the Backache result was “Musculoskeletal: Backache (5%)”; the Confusion result is on record as “Neurologic: Confusion (up to 5.7%), Dizziness (25%), Headache”; the Constipation result is “Gastrointestinal: Constipation (7% to 8%), Diarrhea (up to 9%),”; the Diarrhea result was “Gastrointestinal: Constipation (7% to 8%), Diarrhea (up to 9%),”. Moreover, for the setting “in vivo”, the Dizziness result is “Neurologic: Confusion (up to 5.7%), Dizziness (25%), Headache”; the Fatigue result was “Other: Fatigue (5.7% to 15%)”; the Hypersensitivity reaction result was “Immunologic: Hypersensitivity reaction (less than 1%)”; the Hypotension result is listed as “Cardiovascular: Cardiac dysrhythmia, Hypotension (3.8% to 7%),”. For the setting “in vivo”, the Nausea entry was “Nausea (21%), Vomiting (at least 1%), Xerostomia (14% to 33.8%)”; the Vomiting result is “Nausea (21%), Vomiting (at least 1%), Xerostomia (14% to 33.8%)”; the Xerostomia result is “Nausea (21%), Vomiting (at least 1%), Xerostomia (14% to 33.8%)”.

Turning to `CC(C)NCC(O)COc1ccc(CCOCC2CC2)cc1` (centres unmarked) [Betaxolol (Kerlone)], for the setting “in vivo”, the Arthralgia result is “Musculoskeletal: Arthralgia (3.1% to 5.2%), Chest pain (2.4% to”; the Bradyarrhythmia result is on record as “Cardiovascular: Bradyarrhythmia (5.8% to 8.1%)”; the “Burning sensation in eye” value is “Ophthalmic: Burning sensation in eye (30%, ophthalmic)”; the Fatigue result is given as “Other: Fatigue (2.9% to 9.7%)”. For the setting “in vivo”, the Indigestion result is recorded as “Gastrointestinal: Indigestion (3.9% to 4.7%), Nausea (1.6% to” and the “Serious side effects, listed without incidence or only as rare” value is given as “Cardiovascular: Atrioventricular block, Myocardial infarction”.

On to `CS(=O)(=O)O.Fc1ccc([C@@H]2CCNC[C@H]2COc2ccc3c(c2)OCO3)cc1` [Brisdelle], for which, under “in vivo”, the Asthenia result is “Neurologic: Asthenia (2.9% to 22%), Dizziness (6% to 14%),”; the Constipation entry was “Gastrointestinal: Constipation (4.9% to 16%), Diarrhea (7.9% to”; the Diaphoresis result is on record as “Dermatologic: Diaphoresis (1% to 14%)”; the Dizziness result was “Neurologic: Asthenia (2.9% to 22%), Dizziness (6% to 14%),”. For the same compound, under “in vivo”, the Insomnia entry was “vasomotor symptoms, 6.3%), Insomnia (11% to 24%), Somnolence”; the Nausea is recorded as ≤ 19.2%), Loss of appetite (2% to 9%), Nausea (up to 36.3%),; the Reduced libido is recorded as 9%), Reduced libido (males, 6% to 15%; females, 0% to 9%); the “Serious side effect, Other” value is on record as “Other: Serotonin syndrome”. Besides, where the note is “in vivo”, the “Serious side effect, Psychiatric” value is recorded as “Psychiatric: Depression, Exacerbation, Suicidal thoughts, Suicide”; the Somnolence entry is given as “(12.7% to 24%), Tremor (up to 14.7%)”; the Tremor entry is “(12.7% to 24%), Tremor (up to 14.7%)”; the Xerostomia result is listed as “Xerostomia (10.8% to 20.6%)”.

Turning to `NS(=O)(=O)c1cc(C2(O)NC(=O)c3ccccc32)ccc1Cl` (centres unmarked) [Chlorthalidone (Hygroton)], under “in vivo”, the “Common side effect listed (incidence not given)” value is on record as “Endocrine metabolic: Hyperuricemia”.

Regarding `CC(C)NCC(O)COc1ccc(COCCOC(C)C)cc1` (centres unmarked) [Bisoprolol (Zebeta)], for the setting “in vivo”, the Diarrhea entry is given as “Gastrointestinal: Diarrhea (2.6% to 3.5%)”; the Fatigue entry is reported as “Other: Fatigue (6.6% to 8.2%)”; the Headache entry is listed as “Neurologic: Headache (8.8% to 10.9%)”; the Rhinitis entry is “Respiratory: Rhinitis (2.9% to 4%), Upper respiratory infection”. Also, the Upper respiratory infection entry (in vivo) is recorded as “(4.8% to 5%.)”.

`O=[N+]([O-])OCC(CO[N+](=O)[O-])O[N+](=O)[O-]` [Nitrates (Nitroglycerin)]: under “in vivo”, the “Common side effect listed (incidence not given)” value was “Dermatologic: Flushing”; the “Dizziness (incidence)” value is reported as “Neurologic: Dizziness (5%), Headache (63% to 64%),”; the “Headache (incidence)” value is on record as “Neurologic: Dizziness (5%), Headache (63% to 64%),”; the “Hypotension (incidence)” value is on record as “Cardiovascular: Hypotension (4%)”. Under “in vivo”, the “Lightheadedness (incidence)” value is reported as “Lightheadedness (6%)”.

`Cc1ccsc1C(=CCCN1CCC[C@@H](C(=O)O)C1)c1sccc1C` [Gabitril]: under “in vivo”, the Confusion was 5%, the Disturbance in speech was 4%, the Nausea was 11% and the Pruritus result is “Dermatologic: Pruritus (2%)”. Besides, under “listed without frequency”, the “Serious side effect, Dermatologic” value is listed as “Dermatologic: Stevens-Johnson syndrome”; the “Serious side effect, Neurologic” value is given as “Seizure, in patients without epilepsy”; the “Serious side effect, Psychiatric” value was “Psychiatric: Suicidal thoughts”.

With `CN(CCOc1ccc(NS(C)(=O)=O)cc1)CCc1ccc(NS(C)(=O)=O)cc1` [Tikosyn], for the setting “in vivo”, the Chest pain entry is “Cardiovascular: Chest pain (10%)”; the Dizziness result is “Neurologic: Dizziness (8%), Headache (11%)”; the Headache result is listed as “Neurologic: Dizziness (8%), Headache (11%)”; the Heart block entry is listed as “Cardiovascular: Heart block (up to 1.2%), Prolonged QT interval,”. In addition, where the note is “in vivo”, the Torsades de pointes result was “Torsades de pointes (0.8%), Ventricular arrhythmia (up to 14.5%),”; the Ventricular arrhythmia entry is reported as “Torsades de pointes (0.8%), Ventricular arrhythmia (up to 14.5%),”; the Ventricular tachycardia is listed as no more than 12.4%). Also, the “Serious side effect, Cardiovascular” value (listed without frequency) is listed as “Cardiovascular: Heart block (up to 1.2%), Prolonged QT interval,”.

With `COC(=O)C1=C(C)NC(C)=C(C(=O)OCC(C)C)C1c1ccccc1[N+](=O)[O-]` (centres unmarked) [Nisoldipine (Sular)], for the setting “in vivo”, the Dizziness result was “Neurologic: Dizziness (5%), Headache (22%)”; the Headache entry is recorded as “Neurologic: Dizziness (5%), Headache (22%)”; the Palpitations entry is on record as “Cardiovascular: Palpitations (3%), Peripheral edema (22%),”; the Peripheral edema entry is reported as “Cardiovascular: Palpitations (3%), Peripheral edema (22%),”. Moreover, for the setting “in vivo”, the Pharyngitis result was “Respiratory: Pharyngitis (5%), Sinusitis”; the “Serious side effects, listed without incidence or only as rare” value is on record as “Cardiovascular: Myocardial infarction”; the Vasodilatation entry is on record as “Vasodilatation (4%)”.

Regarding `O=C1Nc2ccc(Cl)cc2C(c2ccccc2Cl)=NC1O` (centres unmarked) [Lorazepam (Ativan)], under “in vivo”, the Acidosis result is “Endocrine metabolic: Acidosis (less than 1%)”; the Asthenia entry is listed as “Neurologic: Asthenia (4.2%), Dizziness (6.9%), Sedated (15.9%),”; the “Common side effects, listed without incidence” value was “Psychiatric: Depression”; the Dizziness entry is on record as “Neurologic: Asthenia (4.2%), Dizziness (6.9%), Sedated (15.9%),”. Further, where the note is “in vivo”, the Sedated result was “Neurologic: Asthenia (4.2%), Dizziness (6.9%), Sedated (15.9%),”; the “Serious side effects, listed without incidence or only as rare” value was “Psychiatric: Delirium”; the Unsteadiness present result is listed as “Unsteadiness present (3.4%)”.

With `CCC[C@H](N[C@@H](C)C(=O)N1[C@H](C(=O)O)C[C@@H]2CCCC[C@@H]21)C(=O)OCC` [Perindopril (Aceon)], for the setting “in vivo”, the Angioedema entry is “Other: Angioedema (0.1% to 0.5%)”; the Backache entry is recorded as “Musculoskeletal: Backache (5.8%)”; the Cough entry is recorded as “Respiratory: Cough (12%)”; the Dizziness entry is “Neurologic: Asthenia, Dizziness (8.2%), Headache”. In addition, under “in vivo”, the Orthostatic hypotension result is “Cardiovascular: Cardiac arrest, Orthostatic hypotension (0.8%)”.

For the compound `CCN(C(C)=O)c1cccc(-c2ccnc3c(C#N)cnn23)c1` [Sonata (zaleplon)], where the note is “in vivo”, the Anaphylaxis entry is recorded as “Immunologic: Anaphylaxis (rare)”; the Angioedema entry is listed as “Other: Angioedema (rare)”; the Depression entry was “Depression (at least 1%), Suicidal behavior, Suicidal thoughts”; the Dizziness result was “Neurologic: Dizziness (7% to 9%), Headache (30% to 42%)”. For the same compound, under “in vivo”, the Drug withdrawal seizure entry was “Neurologic: Drug withdrawal seizure (rare)” and the Headache entry is listed as “Neurologic: Dizziness (7% to 9%), Headache (30% to 42%)”.

Take `O=C(O)C(O)C(O)C(=O)O.c1cnc2cc3c(cc2n1)[C@@H]1CNC[C@H]3C1` [Chantix]: for the setting “in vivo”, the Acquired night blindness result is “Ophthalmic: Acquired night blindness (rare), Blurred vision”; the Angina result is given as “Cardiovascular: Angina (2.3%), Myocardial infarction (2%)”; the Constipation entry is given as “Gastrointestinal: Constipation (5% to 8%), Flatulence (6% to 9%),”; the Depression entry is “Psychiatric: Abnormal behavior, Depression (3.5% to 11%),”. For the same compound, under “in vivo”, the Dream disorder entry is “Neurologic: Dream disorder (9% to 13%), Headache (11% to 19%),”; the Flatulence entry is on record as “Gastrointestinal: Constipation (5% to 8%), Flatulence (6% to 9%),”; the Headache entry is reported as “Neurologic: Dream disorder (9% to 13%), Headache (11% to 19%),”; the Hostile behavior result is reported as “Hostile behavior (2%), Mood disorder (2.3%), Suicidal behavior,”. Besides, where the note is “in vivo”, the Insomnia result is “Insomnia (10% to 19%)”; the Mood disorder result is “Hostile behavior (2%), Mood disorder (2.3%), Suicidal behavior,”; the Myocardial infarction result is “Cardiovascular: Angina (2.3%), Myocardial infarction (2%)”; the Nausea result is reported as “Nausea (30%), Vomiting (5% to 11%)”. In addition, for the setting “in vivo”, the Retinal vascular disorder entry is “(infrequent), Retinal vascular disorder (rare), Subcapsular cataract”; the “Serious side effect, Neurologic” value is given as “Neurologic: Cerebrovascular accident”; the “Serious side effect, Psychiatric” value is “Psychiatric: Abnormal behavior, Depression (3.5% to 11%),”; the Subcapsular cataract result is listed as “(rare), Transient blindness (rare), Visual disturbance (infrequent)”. For the same compound, where the note is “in vivo”, the “Suicidal behavior, and/or ideation” value was “and/or ideation (6% to 11%)”; the Transient blindness result was “(rare), Transient blindness (rare), Visual disturbance (infrequent)”; the Visual disturbance result was “(rare), Transient blindness (rare), Visual disturbance (infrequent)”; the Vomiting result was “Nausea (30%), Vomiting (5% to 11%)”.

On to `CN1C(=O)CN=C(c2ccccc2)c2cc(Cl)ccc21` [Valium (diazepam)], for which, where the note is “in vivo”, the “Common side effect, Cardiovascular” value is “Cardiovascular: Hypotension”; the “Common side effect, Musculoskeletal” value is listed as “Musculoskeletal: Muscle weakness”; the “Common side effect, Neurologic” value is “Neurologic: Ataxia, Incoordination (3%, rectal gel), Somnolence”; the “Common side effect, Other” value was “Other: Fatigue”. In addition, where the note is “in vivo”, the “Common side effect, Respiratory” value was “Respiratory: Respiratory depression”; the Diarrhea result was “Gastrointestinal: Diarrhea (4%, rectal gel)”; the Euphoria entry is listed as “Psychiatric: Euphoria (3%, rectal gel)”; the Incoordination result is listed as “Neurologic: Ataxia, Incoordination (3%, rectal gel), Somnolence”. Moreover, under “in vivo”, the Rash result is on record as “Dermatologic: Rash (3%, rectal gel)” and the “Serious side effect, Hematologic” value was “Hematologic: Neutropenia”.
